Laboratory results: patent US5349127A, “Expression of herbicide metabolizing cytochromes P450” (priority 1992, dated 1994)

What was measured:
[1] = test system: transformed tobacco seedlings; assay: Tissue culture growth of transformed tobacco seed on 50 nM 10015 (Examples 22-23); format: in vivo, Nicotiana tabacum
Description: Growth medium was prepared from Murishige minimal organics medium (Gibco Laboratories, Grand Island, N.Y.), 8 g/l agar, supplemented with T vitamins (50 ppb biotin, 0.5 ppm pyridoxine HCl, 0.5 ppm thiamine HCl, 5 ppm nicotinic acid, 0.5 ppm folic acid, 2 ppm glycine, 100 ppm myo-inositol), sterilized and placed into sterile PlantCon plant tissue culture containers (Flow Laboratories, McLean, Va.). Tobacco seed obtained from the self-pollination of the primary transformants was surface sterilized by a treatment of not more than 30 min in 20% chlorine bleach, 0.1% sodium dodecyl sulfate, followed by rinsing in distilled water, and placed on the surface of the medium in the sterile containers. Following this treatment, the seed was allowed to germinate and grow under illumination (100 microeinsteins·m^-2 ·s^-1), at 22° C.
Because of the increased phytotoxicity of 10014 over that of 10015, plants grown in media containing 10015 should be growth inhibited if they contain an active cytochrome P450SU1. To test this, seeds of tobacco were grown in tissue culture media supplemented with 50 nM compound 10015, and the results are shown in Table 20.
This technique was used to analyze the progeny of plants transformed with both the gene for SU1 and FeS-B, and the results are shown in Table 21.
Plants transformed With the plasmids pSuFe31 and pSuFe41 were selected for high expression of P450SU1 and FeS-B mRNA by primer extension analysis as described in Example 19, and self pollinated to produce seed. This seed was germinated on medium containing 50 nM of compound 10015 and analyzed for sensitivity to this compound (indicating the presence of an active cytochrome P450SU1 enzyme) as in Example 22.

S. griseolus ATCC 11796 = assay: Western blot for cytochrome P450SU1 after induction with 10001 (Example 3); format: cell-based, Streptomyces griseolus; details: 36 mg of 10001 added six hours before harvesting; not found without 10001
Description: Western blot analysis of proteins is performed by separating the proteins by SDS polyacrylamide gel electrophoresis (Laemmli, Nature 227: 680, 1970, herein incorporated by reference) and then transferring the proteins to nitrocellulose and detecting the protein of interest with antibody specific for the protein as described by Towbin et al., Proc. Natl. Acad. Sci. U.S.A. 76: 4350-4354 (1979) and Bio-Rad bulletin 885 85-0335. (Bio-Rad Laboratories, Richmond, CA 94804), each herein incorporated by reference. Antiserum to cytochrome P450SU1 was that described by O'Keefe et al., Recent Advances in Phytochemistry 21: 151-173 (1987), herein incorporated by reference.
S. lividans containing pCAO200, containing pCAO200SU1-FeS-B#9 and S. lividans containing […] were grown separately in 400 ml of YEME broth with-shaking at 30° C. for approximately 36 hours. S. griseolus ATCC 11796 was grown in 400 ml of sporulation broth for approximately 30 hours. Six hours before harvesting the cells from the cultures, 200 ml of YEME was added to the S. lividans cells. Six hours before harvesting, the S. griseolus culture was split into two 200 ml aliquots and 100 ml of fresh sporulation broth was added to each. […] Cytochrome P450SU1 was detected in the cultures of S. lividans transformed with either pCAO200SU1-FeS-B#9 or pCAO200SU1#12 and in the S. griseolus ATCC 11796 culture induced with 10001.

## COc1cc(OC)nc(NC(=O)NS(=O)(=O)c2cccc3c2S(=O)(=O)N(C(C)C)C3)n1 [compound 10015]
[1]; AGS502 (Control)
  Compound 10015 Sensitive (plants demonstrating result/total plants): 0/9
  Number 10015 Resistant: 32
  Number 10015 Sensitive: 0
  Ratio Sensitive/Resistant: 0
[1]; SuFe21.2
  Compound 10015 Sensitive (plants demonstrating result/total plants): 7/9
[1]; SuFe21.5
  Compound 10015 Sensitive (plants demonstrating result/total plants): 8/9
[1]; SuFe21.6
  Compound 10015 Sensitive (plants demonstrating result/total plants): 7/9
[1]; SuFe21.7
  Compound 10015 Sensitive (plants demonstrating result/total plants): 5/7
[1]; SuFe21.8
  Compound 10015 Sensitive (plants demonstrating result/total plants): 10/10
[1]; SuFe31.13
  Number 10015 Resistant: 4
  Number 10015 Sensitive: 12
  Ratio Sensitive/Resistant: 3.0
[1]; SuFe31.28
  Number 10015 Resistant: 5
  Number 10015 Sensitive: 10
  Ratio Sensitive/Resistant: 2.0
[1]; SuFe41.34
  Number 10015 Resistant: 32
  Number 10015 Sensitive: 0
  Ratio Sensitive/Resistant: 0
[1]; SuFe41.37
  Number 10015 Resistant: 8
  Number 10015 Sensitive: 24
  Ratio Sensitive/Resistant: 3.0
[1]; SuFe41.56
  Number 10015 Resistant: 32
  Number 10015 Sensitive: 0
  Ratio Sensitive/Resistant: 0
[1]; SuFe41.60
  Number 10015 Resistant: 15
  Number 10015 Sensitive: 0
  Ratio Sensitive/Resistant: 0
[1]; SuFell.1
  Compound 10015 Sensitive (plants demonstrating result/total plants): 2/9
[1]; SuFell.11
  Compound 10015 Sensitive (plants demonstrating result/total plants): 0/9
[1]; SuFell.3
  Compound 10015 Sensitive (plants demonstrating result/total plants): 0/8
[1]; SuFell.4
  Compound 10015 Sensitive (plants demonstrating result/total plants): 0/10
[1]; SuFell.7
  Compound 10015 Sensitive (plants demonstrating result/total plants): 0/9
[1]; SuFell.8
  Compound 10015 Sensitive (plants demonstrating result/total plants): 1/10

## CCOC(=O)c1ccccc1S(=O)(=O)NC(=O)Nc1nc(Cl)cc(OC)n1 [compound 10001, N-[(4-chloro-6-methoxy-pyrimidin-2-yl)aminocarbonyl]-2-ethoxycarbonylbenzenesulfonamide]
S. griseolus ATCC 11796
  Cytochrome P450SU1 in culture (Western blot): detected
